Measurements from paper PMC6839601, “Discovery of selective, antimetastatic and anti-cancer stem cell metallohelices via post-assembly modification” (Chemical Science, 2019).

Tests used:
HCT116 p53+/+ cells = assay: Inhibition of HCT116 colonosphere formation; format: cell-based, human; details: IC30 for 72 h, then 6 days
Procedure: Cells were treated with drug (IC30 concentration) for 72 h, washed, harvested with StemPro Accutase, and plated in ultra-low attachment 96-well culture plates (300 cells per well). Cells were cultured in for 6 days without disturbing the plates or replenishing the medium and the number/size of spheres were determined using an inverted microscope.
10. Anti-cancer stem cell study
10.1 Inhibition of HCT116 colonsphere formation
HCT116 p53+/+ (adherent) cells were treated with  Δ-[Fe 2L13]Cl4,  Δ-[Fe 2L3a3]Cl4 and
salinomycin (at their IC30 values) for 72 h. Cells were then washed with PBS, harvested by
StemProAccutase (Gibco) and plated in ultralow-attachment 96w culture plates (Corning)
(300cells per well). Cells were cultured in DMEM/F12 supplemented with B27 (-vitA, Gibco,
ngmL-1 FGF2 (Sigma, F0291) for 6 days without disturbing the plates and without replenishing
(§1) the medium. The number and size of spheres were determined using an inverted microscope.
Supplementary Table 3. Quantification of colonospheres formation in HCT116 p53+/+ cells untreated or treated […]
aThe results are expressed as mean ± SD of three independent experiments.
Supplementary Figure 27. Quantification of colonosphere formation in HCT116 p53+/+ colonospheres untreated
or treated with the investigated compounds at their respective IC30 values for 72 h. The results are expressed as […]

HCT116.CD133+ cells = assay: Inhibition of HCT116.CD133+ colonosphere formation; format: cell-based, human; details: IC30 values for 6 days
Procedure: (§2) Supplementary Figure 28. Representative images of the HCT116 p53 +/+ colonospheres untreated or treated
(§3) with the investigated compounds at their respective IC 30 values for 72 h. Scale bars: 100 µm.
(§4) colonosphere formation similarly or more effectively than  Δ-[Fe 2L13]Cl4 and salinomycin, a
(§5) well-established CSC-potent agent.
(§6) 10.2 Separation of HCT116.CD133 + and HCT116.CDD133 - cells by magnetically
(§7) activated cell sorting (MACS)
(§8) Positive selection with a single marker of CD133/1 (AC133) was used to enrich for CSCs. The
(§9) cells were harvested by non-enzymatic Cell Stripper (Corning), prepared into single cell
(§10) suspension (30 µm strainer) and counted. Approx. 2×10^7 cells were obtained for cell sorting.
(§11) For a selection of CD133 single positive cells, the cells were stained with the APC-conjugated
(§12) incubated for 20 min at 4-8 °C. The cells were washed with buffer (PBS, 0.5% BSA, pH 7.2;
(§13) prepared by diluting MACS BSA Stock Solution (130-091-376) 1:20 with auto MACS Rinsing
(§14) Solution (130-091-222)) and incubated with Anti-APC Micro Bead (Miltenyi Biotec, 130-090- […]
(§15) three-times in Buffer and analyzed on BD FACSVerse flow cytometer (San Jose, CA, USA);
(§16) the data were analyzed using BD FACSSuite software.
(§17) Supplementary Figure 29. Representative histograms displaying the red fluorescence emitted by anti-CD133- […]
as §1

HCT116.CD133- cells = assay: Inhibition of HCT116.CD133- colonosphere formation; format: cell-based, human; details: IC30 values for 6 days
Procedure: as §2, §3, §4, §5, §6, §7, §8, §9, §10, §11, §12, §13, §14, §15, §16, §17, §1

[1] = tested on: CSC enriched HCT116.CD133+ cells; assay: Cytotoxicity in HCT116.CD133+ cells, SRB assay; format: cell-based; details: Homo sapiens, 72 h, read-out: IC50 HCT116.CD133+
Text: Supplementary Figure 30. Growth inhibitory effects in HCT116.CD133- and HCT116.CD133+ cancer cells.
Representative microscopy images of the HCT116.CD133- colonospheres in the absence (a) and presence of […]
salinomycin (b), Δ-[Fe 2L13]Cl4 (c), and Δ-[Fe 2L3a3]Cl4 (d), treated at their respective IC30 values for 6 days (scale […]
bar: 100 µm). Quantification of colonosphere formation from HCT116.CD133+ (e) and HCT116.CD133- (f,g) […]
under the same conditions. Data represent the mean value and SD from three independent experiments. p < 0.01, […]
10.5 Cytotoxicity in HCT116.CD133 + cells, SRB assay
Sorted HCT116.CD133+ cells were plated in 96w culture plates (TPP) (3000 cells per well) […]
and cultured for 3 days to allow cells to recover after sorting and to grow to the desired density.
Cells were then treated with different concentrations of the investigated compounds, […]
with Tris base (pH 10.5). The absorbance at 570 nm was measured using a SUNRISE Tecan […]
absorbance reader (Schoeller). The IC50 values were calculated from curves constructed by […]
plotting cell survival (%) versus drug concentration (μM). The reading values were converted […]
to the percentage of control (% cell survival). Cytotoxic effects were expressed as IC 50. […]
determined with SRB assay. a […]
aThe cells were treated for 72 h. The results are expressed as mean ± SD of three independent experiments. […]

HCT116p53+/+ = assay: Cytotoxicity in HCT116 p53+/+ cells, SRB assay; format: cell-based; details: Homo sapiens, HCT-116, 72 h, read-out: IC50 HCT116p53+/+
Na+/K+ ATPase = assay: Rubidium based assay for detection of Na+/K+ ATPase activity; parameters: species or system human; details: A2780 and HCT116 p53+/+ cell lines, 10 μM for 6 h, then RbCl (5.4 mM) 3 h, ICP-MS
Procedure: Cells were seeded in 6-well plates and incubated for 24 h at 37 °C in an atmosphere of 5% CO2. Cells were then incubated with drug for 6 h, and subsequently the medium was removed and cells were washed with PBS. Cells were then incubated with RbCl (5.4 mM) for 3 h, washed and counted. Rubidium content was determined by ICP-MS.
8.4 Real-time cell growth monitoring
Real-time Cell Analyzer (RTCA) (xCELLigence RTCA SP Instrument, ROCHE) was employed for growth monitoring of cells in the absence and the presence of tested compounds.
After the background of E-plates reading (100 µL medium), the cells were added (5x10^3 cells/well; 50 µL) and grown for 22-28 h. Tested compounds at varying concentrations were then added in 50 µL of media. The impedance was monitored for additional 80 h. An arbitrary unit CI (cell index) is a quantitative measure reflecting the status of the cells (number of attached cells and cell status such as morphology) in an electrode-containing well. Normalized CI at a given time point is given by dividing CI at the time point by CI at a reference time point.
8.5 Rubidium based assay for detection of Na +/K+ ATPase activity
The cells were seeded on 6-well plates (5× 10^5 cells/dish) and incubated overnight. The cells were treated with the investigated compounds for 6 h at 10 µM concentration. […] The cells were then harvested, washed trice with PBS, counted and pelleted. […]

Row | Compound | Diameter of colonospheres (HCT116 p53+/+ cells; control 96 ± 20) | Spheres/1000cells (HCT116 p53+/+ cells; control 224 ± 14) | inhibition of colonosphere formation from HCT116.CD133+ cells (HCT116.CD133+ cells) | inhibition of colonosphere formation from HCT116.CD133- cells (HCT116.CD133- cells) | IC50 [1] | IC50 (HCT116p53+/+) | inhibition of Rb+ uptake (Na+/K+ ATPase)
1 | CC[C@@H](C(=O)[C@@H](C)[C@@H](O)[C@H](C)[C@@H]1O[C@@H]([C@@H](CC)C(=O)O)CC[C@@H]1C)[C@H]1O[C@]2(C=C[C@@H](O)[C@]3(CC[C@@](C)([C@H]4CC[C@](O)(CC)[C@H](C)O4)O3)O2)[C@H](C)C[C@@H]1C [Salinomycin, salinomycin] | 76 ± 17 µm | 142 ± 14 | effectively inhibit | do not significantly inhibit | 1120 ± 230 nM | 1480 ± 210 nM | –
2 | C[C@@H]1O[C@@H](O[C@H]2C[C@@H](O)[C@]3(CO)[C@H]4[C@H](O)C[C@]5(C)[C@@H](C6=CC(=O)OC6)CC[C@]5(O)[C@@H]4CC[C@]3(O)C2)[C@H](O)[C@H](O)[C@H]1O [ouabain] | – | – | – | – | – | – | 39–57%
